Test results as given in the NIST ThermoML archive (doi:10.1016/j.fluid.2004.11.019).

Test: xn = mol fraction of the nth substance listed
Settings: 348.15 K, Liquid

CCO [ethanol] + O
mass density [kg/m3]
Settings | 10000 kPa | 20000 kPa | 30000 kPa | 40000 kPa
x1 = 0.003 | – | 981.9 | 986.1 | 990.1
x1 = 0.0042 | – | 980.6 | 984.8 | 988.8
x1 = 0.0082 | – | 979.4 | 983.6 | 987.6
x1 = 0.0119 | – | 977.7 | 981.9 | 986
x1 = 0.0158 | – | 975.3 | 979.4 | 983.5
x1 = 0.0184 | – | 973.9 | 978.1 | 982.1
x1 = 0.0219 | – | 972.6 | 976.7 | 980.8
x1 = 0.0255 | – | 970.7 | 975 | 979
x1 = 0.0279 | – | 969.1 | 973.3 | 977.3
x1 = 0.0315 | – | 968 | 972.3 | 976.3
x1 = 0.0366 | – | 965.3 | 969.5 | 973.6
x1 = 0.0392 | – | 963.8 | 968.1 | 972.1
x1 = 0.0439 | – | 962.1 | 966.3 | 970.4
x1 = 0.0483 | 955.6 | 959.9 | 964.1 | 968.2
x1 = 0.0516 | 954.6 | 958.9 | 963.2 | 967.3
x1 = 0.0559 | 953.2 | 957.5 | 961.7 | 965.9
x1 = 0.06 | 951.3 | 955.8 | 960 | 964.1
x1 = 0.0652 | 949.1 | 953.5 | 957.8 | 961.9
x1 = 0.0679 | 948.2 | 952.5 | 956.8 | 960.9
x1 = 0.0722 | 946.1 | 950.4 | 954.7 | 958.9
x1 = 0.0801 | 942.6 | 947 | 951.3 | 955.6
x1 = 0.084 | 941.9 | 946.3 | 950.7 | 954.9
x1 = 0.0879 | 939.9 | 944.4 | 948.8 | 953
x1 = 0.0926 | 938.1 | 942.6 | 947 | 951.3
x1 = 0.0958 | 936.8 | 941.3 | 945.7 | 950
x1 = 0.1006 | 934.9 | 939.4 | 943.9 | 948.1
x1 = 0.1111 | 930.7 | 935.3 | 939.8 | 944.2
x1 = 0.1225 | 926.3 | 931.1 | 935.6 | 940
x1 = 0.1296 | 923.6 | 928.3 | 932.9 | 937.4
x1 = 0.1402 | 919.5 | 924.4 | 929.1 | 933.7
x1 = 0.151 | 915.4 | 920.3 | 925.1 | 929.7
x1 = 0.1601 | 912.1 | 917.1 | 922 | 926.6
x1 = 0.1703 | 908.4 | 913.5 | 918.4 | 923.1
x1 = 0.18 | 904.8 | 910 | 915 | 919.8
x1 = 0.1903 | 901.3 | 906.5 | 911.6 | 916.4
x1 = 0.1996 | 898.1 | 903.4 | 908.5 | 913.4
x1 = 0.2269 | 888.9 | 894.4 | 899.7 | 904.8
x1 = 0.2502 | 881.6 | 887.3 | 892.8 | 898.1
x1 = 0.2745 | 874.2 | 880.2 | 885.8 | 891.1
x1 = 0.3009 | 866.8 | 872.9 | 878.6 | 884.2
x1 = 0.35 | 853.6 | 860 | 866.2 | 872
x1 = 0.4034 | 840.7 | 847.5 | 854 | 860
x1 = 0.4501 | 830.3 | 837.4 | 844.2 | 850.5
x1 = 0.498 | 820.7 | 828.1 | 835.1 | 841.6
x1 = 0.5501 | 811 | 818.7 | 825.9 | 832.7
x1 = 0.5998 | 802.5 | 810.5 | 818 | 824.9
x1 = 0.6489 | 794.6 | 802.9 | 810.6 | 817.8
x1 = 0.6967 | 787.6 | 796.1 | 804 | 811.3
x1 = 0.7475 | 780.7 | 789.4 | 797.6 | 805.1
x1 = 0.7996 | 774 | 783 | 791.3 | 799
x1 = 0.8484 | 768 | 777.3 | 785.8 | 793.6
x1 = 0.8993 | 762.1 | 771.6 | 780.3 | 788.3
x1 = 0.9503 | 756.7 | 766.4 | 775.2 | 783.4
x1 = 1 | 751.2 | 761.2 | 770.3 | 778.6
